# Several values for one entry are separate records, joined by “and”; a condition that tells them apart may be missing. Equal entries are not always repeated.
# Columns and labels:
# CSF1 mRNA = assay: RT-qPCR of CSF1 mRNA in mouse tumor cells (ID8, B16); type: cell-based; conditions: ID8, 50 nM, 48 h
# [1] = system: human melanoma patient-derived xenograft (PDX); assay: Human melanoma patient-derived xenograft (PDX) tumor growth; type: in vivo, NSG mice; conditions: human melanoma PDX, once daily (5 days on, 2 days off) 21 days, NHWD-870-HCl
# From the text: PO, oral administration; QD, once daily; BID, twice daily. b–d Tumor growth curves for A2780 ovarian tumor (n = 5) (b), TMD8 large B cell lymphoma (n = 6) (c), and B16F10 melanoma (n = 5) (d) bearing mice treated with the indicated compounds once daily for 11-21 days. e, f Tumor growth curves for A375 melanoma (n = 6) (e), and patient-derived xenograft (PDX) of melanoma (n = 5) (f) bearing mice treated with the indicated compounds once daily (5 days on, 2 days off) for 21 days. For d–f, NHWD-870 used is NHWD-870-HCl synthesized using Suzuki coupling route. Data are presented as mean ± SEM in (a, b, d, f) and mean + SEM in (c, e). p values were calculated using two-tailed, unpaired t tests. *p < 0.05; **p < 0.01; ***p < 0.001. Source data are provided as a Source Data file.
# 4–6 weeks old female BALB/c nude mice were used for most experiments, with the exception of 6–8 weeks old female C57BL/6 mice were used for B16F10 experiments, and 6–8 weeks old male BALB/c nude mice and SD rats were used for pharmacokinetic experiments. All animals were purchased from Shanghai SIPPR-Bk Lab Animal Co., Ltd. All animals were housed under a regimen of 12 h light/12 h dark cycles and specific pathogen-free conditions. 5×10^6 NCI-H526, ES-2, MDA-MB231, A2780, A375, B16F10, and TMD-8 cells (0.1 ml) were injected subcutaneously into female nude mice. The melanoma patient-derived xenograft model was derived from a human melanoma sample (BRAF, NARS and NF1 wild type, and p53 mutant) removed from a patient in Xiangya Hospital. Surgically removed tumor fragments were implanted subcutaneously into female NSG mice. When the tumors grew to ~1000 mm^3, they were harvested and cryopreserved or immediately re-implanted for expansion or experiments. Mouse body weight and tumor sizes were measured every 3 days. Once the tumors grew to 150–200 mm^3, mice were treated with the compounds as described in the Figures. 1 × 10^6 A2780 cells (1 ml) were injected into the abdominal cavity of nude mice. Ascitic volume and tumor weight were measured by an electronic balance. All the procedures were evaluated and approved by the Institutional Animal Care and Use Committee of Central South University and Yale University.
# [2] = system: phosphorylated BRD4 and c-MYC; assay: Western blot of p-BRD4, BRD4 and c-MYC in solid tumor cell lines; type: cell-based, human; conditions: 24 h
# Method: Fig. 2 NHWD-870 inhibited BRD4 phosphorylation and c-MYC expression, and suppressed cell growth. a Representative western blot analysis of p-BRD4 (s484/488), BRD4, c-MYC, and GAPDH after treatment of MDA-MB231, SUM159, A2780 ES-2, and H526 cells with JQ-1 or NHWD-870 at the indicated concentrations for 24 h. GAPDH served as the loading control. Selected from three independent experiments. b MTT assays of H526, A2780, ES-2, and MDA-MB231 cells treated with JQ-1 or NHWD-870 at the indicated concentrations for 5 days. Data are presented as mean ± SEM from three independent experiments. c, d Clonogenic assays of H526, A2780, ES-2 and MDA-MB231 cells treated with 250 nM JQ-1 or NHWD-870 for 5 days. Shown are representative images (c) and quantification of colonies (d). […] Shown are representative images (e) and quantification of relative colony sizes (f). Scale bar, 50 μm. Data are presented as mean ± SEM from five independent experiments. p values were calculated using two-tailed, unpaired t tests in this figure. **p < 0.01; ***p < 0.001. Source data are provided as a Source Data file. […]
# 4. Protein extraction and w estern blot anal ysis. Freshly dissected unfixed tissue was homogenized in lysis buffer. The lysates were centrifuged at 13,000g for 10 minutes at 4°C. Supernatants were collected and determined with a Bradford Protein Assay kit (Bio-Rad, Hercules, CA). The cell lysates were subjected to SDS-PAGE followed by immunoblotting (Immobilon P; Millipore, Milford, MA) with specific antibodies followed by detection using an enhanced chemilumine scence kit (Amersham Life Science, Arlington Heights, IL). […]
# [3] = Equilibrium dialysis assay, human plasma
# Method: The concentration was calculated using the peak area ratio of analyte and internal […]
# The results were calculated by the following equations:
# % Unbound = 100 *FC / TC, % Bound = 100 * (1-FC / TC)
# % Recovery = 100 * (FC + TC) / T0
# TC = Total compound concentration as determined by the calculated concentration on the retentate side of the membrane
# FC = Free compound concentration as determined by the calculated concentration on the dialysate side of the membrane […]
# Equation of first order kinetics: […]
# 8. Equilibrium dialysis assay. Binding with plasma protein and recovery rate of NHWD-870 were performed with human, CD-1 mouse and SD rat plasma as […]
# described 2. […] The concentration was […]
# calculated using the peak area ratio of analyte and internal standard. The results were calculated by the following equations: % Unbound = 100 *FC / TC, % Bound = 100 * (1-FC / TC); % Recovery = 100 * (FC + TC) / T0; TC = Total compound concentration as determined by the calculated concentration on the retentate side of the membrane; FC = Free compound concentration as determined by the (1 picture or pasted object on this page, not shown here) […]
# calculated concentration on the dialysate side of the membrane; T0 = To t a l compound concentration as determined before dialysis. […]
# 10. hERG channel assay. […]
# HEK293 cell line stably
structure (smiles),measurement,setting,value
Cc1nnn(C)c1-c1cnc2c3c4cnn(C)c4ccc3n([C@H](c3ccccc3)C3CCOCC3)c2c1 [NHWD-870],relative CSF1 mRNA level,CSF1 mRNA,0.0037 and 0.00425 and 0.0051
same,effect on tumor growth,[1],very strong tumor inhibitive effects
same,effect on phosphorylated BRD4 and c-MYC (western blot),[2]; 10 nM,depletion of phosphorylated BRD4 and c-MYC
same,effect on the stability of BRD4 (western blot),[2],minimal effects on the stability of BRD4
same,% Bound,"[3]; Human plasma, equilibrium dialysis",97.5%
same,fraction unbound,"[3]; human, plasma",0.025
same,recovery,"[3]; human, plasma",92.8%

# — article PMC7156724, “Potent BRD4 inhibitor suppresses cancer cell-macrophage interaction” (Nature Communications, 2020)
